Data taken from US9062043B2, “Fused tricyclic compounds as serine-threonine protein kinase and PARP modulators” (SENHWA BIOSCIENCES, INC., priority 2006, dated 2015).

What was measured:
MiaPaca xenografts = assay: Tumor suppression in MiaPaca xenograft mice; format: in vivo
LNCaP = assay: Cell proliferation assay, Alamar Blue, LNCaP; format: cell-based; settings: Homo sapiens; LNCaP cells, anti-proliferative
Description: (§1) A representative cell-proliferation assay protocol using Alamar Blue dye (stored at 4° C., use 20 ul per well) is described hereafter.
(§2) c. Plate 4,000-5,000 cells per well in 100 μl of medium and seed into a 96-well plate according to the following plate layout. Add cell culture medium only to wells B10 to B12. Wells B1 to B9 have cells but no compound added.
(§3) d. Add 100 μl of 2× drug dilution to each well in a concentration shown in the plate layout above. At the same time, add 100 μl of media into the control wells (wells B10 to B12). Total volume is 200 μl/well.
(§4) e. Incubate four (4) days at 37° C., 5% CO2 in a humidified incubator.
(§5) f. Add 20 μl Alamar Blue reagent to each well.
(§6) g. Incubate for four (4) hours at 37° C., 5% CO2 in a humidified incubator.
(§7) h. Record fluorescence at an excitation wavelength of 544 nm and emission wavelength of 590 nm using a microplate reader.
(§8) In the assays, cells are cultured with a test compound for approximately four days, the dye then is added to the cells and fluorescence of […] dye is detected after approximately four hours. Different types of cells can be utilized in the assays (e.g., HCT-116 human colorectal carcinoma cells, PC-3 human prostatic cancer cells and MiaPaca human pancreatic carcinoma cells). Anti-proliferative effects of representative compounds are provided hereafter.

A375 = assay: Cell proliferation assay, Alamar Blue, A375; format: cell-based; settings: Homo sapiens, A-375; A375 cells, anti-proliferative
Description: as §1, §2, §3, §4, §5, §6, §7, §8

HL-60 = assay: Cell proliferation assay, Alamar Blue, HL-60; format: cell-based; settings: Homo sapiens; HL-60 cells, anti-proliferative
Description: as §1, §2, §3, §4, §5, §6, §7, §8

SK-OV-3 = assay: Cell proliferation assay, Alamar Blue, SK-OV-3; format: cell-based; settings: Homo sapiens; SK-OV-3 cells, anti-proliferative
Description: as §1, §2, §3, §4, §5, §6, §7, §8

MDAMB231 = assay: Cell proliferation assay, Alamar Blue, MDAMB231; format: cell-based; settings: Homo sapiens, MDA-MB-231; MDAMB231 cells, anti-proliferative
Description: as §1, §2, §3, §4, §5, §6, §7, §8

MCF-7 = assay: Cell proliferation assay, Alamar Blue, MCF-7; format: cell-based; settings: Homo sapiens, MCF7; MCF-7 cells, anti-proliferative
Description: as §1, §2, §3, §4, §5, §6, §7, §8

H460 = assay: Cell proliferation assay, Alamar Blue, H460; format: cell-based; settings: Homo sapiens, NCI-H460; H460 cells, anti-proliferative
Description: as §1, §2, §3, §4, §5, §6, §7, §8

COLO 205 = assay: Cell proliferation assay, Alamar Blue, COLO 205; format: cell-based; settings: Homo sapiens; COLO 205 cells, anti-proliferative
Description: as §1, §2, §3, §4, §5, §6, §7, §8

PanC1 = assay: Cell proliferation assay, Alamar Blue, PanC1; format: cell-based; settings: Homo sapiens, PANC-1; PanC1 cells, anti-proliferative; read-out: IC50 (uM) PanC1
Description: as §1, §2, §3, §4, §5, §6, §7, §8

Raji = assay: Cell proliferation assay, Alamar Blue, Raji; format: cell-based; settings: Homo sapiens; Raji cells, anti-proliferative
Description: as §1, §2, §3, §4, §5, §6, §7, §8

[1] = tested on: PC-3 human prostatic cancer cells; assay: Cell proliferation assay, Alamar Blue, PC-3; format: cell-based; settings: Table 16, read-out: IC50 PC3
Description: as §1, §2, §3, §4, §5, §6, §7, §8

A549 = assay: Cell proliferation assay, Alamar Blue, A549; format: cell-based; settings: Homo sapiens, Table 16
Description: as §2, §3, §4, §5, §6, §7, §8

Jurkat = assay: Cell proliferation assay, Alamar Blue, Jurkat; format: cell-based; settings: Homo sapiens, Table 16;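 further: cells exposed to compound for about 4 days at 37 °C, then Alamar Blue added and fluorescence read after about 4 h, controls given medium without drug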
[2] = tested on: HCT-116 human colorectal carcinoma cells; assay: Cell proliferation assay, Alamar Blue, HCT-116; format: cell-based; settings: HCT-116, Table 16, second HCT-116 column;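 further: cells exposed to compound for about 4 days, then Alamar Blue added and fluorescence read after about 4 h, medium-only wells as control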
[3] = tested on: MiaPaca human pancreatic carcinoma cells; assay: Cell proliferation assay, Alamar Blue, MiaPaca; format: cell-based; settings: MIA PaCa-2, Table 16
How it was run: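 Read-out is Alamar Blue fluorescence (ex 544 nm, em 590 nm), measured after a 4-hour dye incubation that follows four days of compound treatment at 37° C. Wells are seeded with 4,000-5,000 cells.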

H1299 = assay: Cell proliferation assay, Alamar Blue, H1299; format: cell-based; settings: Homo sapiens, NCI-H1299; Table 16
Description: as §2, §3, §4, §5, §6, §7, §8

BxPC3 = assay: Cell proliferation assay, Alamar Blue, BxPC3; format: cell-based; settings: Homo sapiens, BXPC-3; Table 16
Description: as §2, §3, §4, §5, §6, §7, §8

Hs578T = assay: Cell proliferation assay, Alamar Blue, Hs578T; format: cell-based; settings: Homo sapiens, Hs-578T; Table 16
HT29 = assay: Cell proliferation assay, Alamar Blue, HT29; format: cell-based; settings: Homo sapiens, HT-29; Table 16
Description: as §2, §3, §4, §5, §6, §7, §8

MCF-7 xenografts = assay: Tumor suppression in MCF-7 xenograft animals; format: in vivo, mice; settings: oral 100 mg/kg
Description: (§9) Animals were handled under laminar-flow hoods.
(§10) Gemar™ administered at a dose of 80 mg/kg IP Q3D was used as a positive control.

PC-3 xenografts = assay: Tumor suppression in PC-3 xenograft animals; format: in vivo, mice; settings: oral 150 mg/kg
Description: as §9, §10

[4] = Pharmacokinetics in ICR mice after IV and PO dose; format: in vivo
caspase-3 = assay: Caspase-3 staining in tumors as biomarker; format: in vivo, mice; settings: 60 mg/kg IV
Description: Caspase staining also was assessed as a biomarker for compound A1 treatment of tumors.

Row | IC50 [1] | IC50 (A549) | IC50 (Jurkat) | IC50 [2] | IC50 [3] | IC50 (H1299) | IC50 (HT29) | SMILES | IC50 (Hs578T) | further results
1 |  |  |  |  |  |  |  | O=C(O)c1ccc2c(c1)nc(Nc1cccc(C(F)(F)F)c1)c1nc(NC3CC3)ncc12 [compound A3] |  | Tumor progression inhibition (MiaPaca xenografts; MiaPaca xenografts, IV administration): significantly inhibited tumor progression
2 |  |  |  |  |  |  |  | O=C(O)c1ccc2c(c1)nc(Nc1cc(Cl)cc(Cl)c1)c1ccsc12 [drawing 991] |  | IC50 (LNCaP): 6.23 µM; IC50 (A375): 19.9 µM; IC50 (HL-60): 1.94 µM; IC50 (SK-OV-3): 11.7 µM; IC50 (MDAMB231): 3.89 µM; IC50 (MCF-7): 13.7 µM; IC50 (H460): 12.3 µM; IC50 (COLO 205): 1.01 µM; IC50 (PanC1): 20.3 µM; IC50 (Raji): 17.7 µM
3 | 32.2 µM | 13.2 µM | 4.31 µM | 8.76 µM | 14.6 µM | 0.97 µM | 13 µM | O=C(O)c1ccc2c(c1)nc(Nc1cc(Cl)cc(Cl)c1)c1ccsc12 [drawing 984] | 7.67 µM | IC50 (BxPC3): 2.1 µM
4 | > 50 µM | > 50 µM | 40.2 µM | 15 µM | > 10 µM | 21.6 µM | > 50 µM | O=C(O)c1ccc2c(c1)nc(Nc1cccc(F)c1)c1ncsc12 | > 50 µM | 
5 |  |  |  |  |  |  |  | O=C(O)c1ccc2c(c1)nc(Nc1cccc(Cl)c1)c1ccncc12 [compound A1] |  | Tumor growth inhibition (MiaPaca xenografts; MiaPaca xenograft, oral 100 mg/kg QDx8 then 200 mg/kg QDx5, relative to untreated control): significantly inhibited tumor growth; Tumor growth inhibition (MCF-7 xenografts): significantly inhibited tumor growth; Tumor growth inhibition (PC-3 xenografts): significantly inhibited tumor growth; CLs ([4]; IV 5 mg/kg): 25 mL/min/kg; Cp0-exp ([4]; IV 5 mg/kg): 13201 ng/mL; Kel ([4]; IV 5 mg/kg): 0.1586 h⁻¹; F(0-8 h) ([4]; PO 25 mg/kg): 10.9%; F(0-inf h) ([4]; PO 25 mg/kg): 18.7%; Kel ([4]; PO 25 mg/kg): 0.1076 h⁻¹; AUC(0-inf) ([4]; mouse, plasma, IV 5 mg/kg): 3360 ng·h/mL; AUC(0-t) ([4]; mouse, plasma, IV 5 mg/kg): 3340 ng·h/mL; Vd ([4]; mouse, plasma, IV 5 mg/kg): 9.4 L/kg; AUC(0-inf) ([4]; mouse, plasma, PO 25 mg/kg): 3150 ng·h/mL; AUC(0-t) ([4]; mouse, plasma, PO 25 mg/kg): 2920 ng·h/mL; Cmax ([4]; mouse, plasma, PO 25 mg/kg): 343 ng/mL; Tmax ([4]; mouse, plasma, PO 25 mg/kg): 15 min; Caspase-3 cell staining levels vs untreated control cells (caspase-3): four-fold greater
6 | 6.11 µM | 7.45 µM | 5.86 µM | > 10 µM | 6.36 µM | 8.14 µM | 2 µM | O=C(O)c1ccc2c(c1)nc(Nc1cc(F)cc(F)c1)c1ccsc12 | 7.31 µM | 
7 | > 50 µM | > 50 µM | 15.2 µM | 15 µM | > 10 µM | 41.8 µM | > 50 µM | O=C(O)c1ccc2c(c1)nc(Nc1ccc(F)c(Cl)c1)c1ncsc12 | 28.2 µM | 
